Literature values in US20240299430A1, “METHODS AND COMPOSITIONS FOR TREATING LONG COVID-19” (Intrinsic Medicine, Inc., priority 2021, published 2024).

What was measured:
[1] = test system: murine and human derived macrophages stimulated with LPS and various pro-inflammatory cytokines; settings: in vitro
[2] = test system: PDL1, COX2 and select chemokines, such as CCL2 (MCP1) and CCL5
[3] = test system: mouse models of rheumatoid arthritis; settings: administered orally, LPS challenge

| Molecule | effect on IL-1β, IL-2, IL-4, IL-6, IL-12, IFN γ or TNF-α [1] | extent of cytokine reduction, 3′-SL compared with 6′SL [1] | effect on PDL1, COX2 and chemokines CCL2 (MCP1) and CCL5 [2] | clinical assessments of disease [3] |
| --- | --- | --- | --- | --- |
| CC(=O)N[C@H]1C([C@H](O)[C@H](O)CO)O[C@@](O[C@@H]2C(O)[C@H](O[C@@H]3C(CO)O[C@@H](O)C(O)[C@H]3O)OC(CO)[C@@H]2O)(C(=O)O)C[C@H]1O (some centres unmarked) [3′SL, 3′-sialyllactose] | reductions | more significant reductions | reduce |  |
| CC(=O)N[C@H]1[C@H]([C@H](O)[C@H](O)CO)O[C@@](OC[C@H]2O[C@@H](O[C@H]3[C@H](O)[C@@H](O)[C@H](O)O[C@@H]3CO)[C@H](O)[C@@H](O)[C@H]2O)(C(=O)O)C[C@@H]1O [6′SL, 6′-sialyllactose] | reductions |  |  |  |
| sialyllactose |  |  |  | benefit in clinical assessments of disease |
